Results reported in patent US20260159536A1, “AKR1C3-ACTIVATED DNA ALKYLATING AGENT, AND MEDICAL APPLICATION THEREOF” (ASCENTAWITS PHARMACEUTICALS, LTD., priority 2021, published 2026).

Assay: in vitro
Conditions: for half-life at 5 µM: hepatocyte cytosol
Experimental: (1) Compound A for test, progesterone positive control, and 100 mM stock solutions of AST-3021 inhibitor were prepared and stored in the freezer (−10° C. to −30° C.).
1) Negative control group: at different time points (0 and 60 min), 30 μL/well of hepatocyte cytosol suspension containing 7.5 μM of sample for test was distributed in a 96-well plate. Three replicate wells were prepared in parallel.
2) Positive control group: at different time points (0, 5, 15, 30, 45 and 60 min), 30 μL/well of hepatocyte cytosol suspension containing 7.5 μM of the positive control was distributed in a 96-well plate. Three replicate wells were prepared in parallel.
3) Normal reaction group: at different time points (0, 5, 15, 30, 45 and 60 min), 30 μL/well of hepatocyte cytosol suspension containing 7.5 μM of sample for test was distributed in a 96-well plate. Three replicate wells were prepared in parallel.
4) Inhibition reaction group: at different time points (0, 5, 15, 30, 45 and 60 min), 30 μL/well of hepatocyte cytosol suspension containing […] of sample for test and 4.5 μM of the inhibitor was distributed in a 96-well plate. Three replicate wells were prepared in parallel.
6) 0 min samples: after 150 μL/well of acetonitrile containing the internal standard was added, then 15 μL/well of pre-heated NADPH working solution was added to the samples of normal reaction group, inhibition reaction group and positive control group, and 15 μL/well of pre-heated potassium phosphate buffer was added to the samples of negative control group.
7) Other samples (5, 15, 30, 45 and 60 min): for normal reaction group, inhibition reaction group and positive control group, 15 μL/well of pre-heated NADPH working solution was added to start the reaction; for negative control group, 15 μL/well of pre-heated potassium phosphate buffer was added. The reaction plates were then continued to incubate in a 37° C. water bath and the reactions were stopped by the addition of 150 μL/well of stop solution at the corresponding time points (5, 15, 30, 45 and 60 min).
The concentration of analyte in each sample was expressed as a peak area ratio (peak area analyte/peak areainternal standard), then the peak area ratio at 0 min was used as a reference to calculate the % Remaining at each time point of the incubation, and the ln logarithmic value of the % Remaining was linearly fitted to the incubation time and the half-life was calculated according to the following formula.
In the absence of AST-3021, 5 μM of progesterone was co-incubated with 2 mM of NADPH and 1 mg/mL of hepatocyte cytosol for 0-60 min as a positive control.

## O=[N+]([O-])c1ccc(C(OP(=O)(N2CC2)N2CC2)C(F)(F)F)cc1Oc1ccc(-c2ccc(F)cc2)c(F)c1 (racemic) [Compound A]
CD-1, mouse, Metabolic parameter t1/2, mouse, 2 mM NADPH, no AST-3021 (normal reaction / positive control group), 5 μM
  half-life at 5 µM: 8.52 h
CD-1, mouse, Metabolic parameter t1/2, mouse, negative control group (no NADPH, no AST-3021), 5 μM
  half-life at 5 µM: 3.72 h
CD-1, mouse, half-life, mouse, with NADPH and AST-3021
  half-life at 5 µM: 2.34 h
CD-1, mouse, half-life, mouse, with NADPH, no AST-3021
  half-life at 5 µM: 8.52 h
CD-1, mouse, with AST-3021 (AKR1C3 inhibitor), 3 μM, Metabolic parameter t1/2, mouse, 2 mM NADPH + 3 μM AST-3021 (inhibition reaction group), 5 μM
  half-life at 5 µM: 2.81 h
SD, rat, Metabolic parameter t1/2, rat, 2 mM NADPH, no AST-3021 (normal reaction / positive control group), 5 μM
  half-life at 5 µM: 2.18 h
SD, rat, Metabolic parameter t1/2, rat, negative control group (no NADPH, no AST-3021), 5 μM
  half-life at 5 µM: 1.83 h
SD, rat, with AST-3021 (AKR1C3 inhibitor), 3 μM, Metabolic parameter t1/2, rat, 2 mM NADPH + 3 μM AST-3021 (inhibition reaction group), 5 μM
  half-life at 5 µM: 1.69 h
Sprague-Dawley (SD), rat, half-life, with NADPH and AST-3021
  half-life at 5 µM: 1.69 h
Sprague-Dawley (SD), rat, half-life, with NADPH, no AST-3021
  half-life at 5 µM: 2.18 h
Cynomolgus (printed as 'machins'), monkey, Metabolic parameter t1/2, monkey, 2 mM NADPH, no AST-3021 (normal reaction / positive control group), 5 μM
  half-life at 5 µM: 2.53 h
Cynomolgus (printed as 'machins'), monkey, Metabolic parameter t1/2, monkey, negative control group (no NADPH, no AST-3021), 5 μM
  half-life at 5 µM: 2.87 h
human, 60 min, no NADPH, no AST-3021
  average % Remaining: 38.96%
human, 60 min, with NADPH, no AST-3021
  average % Remaining: 43.34%
human, Metabolic parameter t1/2, human, 2 mM NADPH, no AST-3021 (normal reaction / positive control group), 5 μM
  half-life at 5 µM: 0.831 h
human, Metabolic parameter t1/2, human, negative control group (no NADPH, no AST-3021), 5 μM
  half-life at 5 µM: 0.735 h
human, half-life, with NADPH and AST-3021
  half-life at 5 µM: 1.08 h
human, half-life, with NADPH, no AST-3021
  half-life at 5 µM: 0.831 h
human, with AST-3021 (AKR1C3 inhibitor), 3 µM, Metabolic parameter t1/2, human, 2 mM NADPH + 3 μM AST-3021 (inhibition reaction group), 5 μM
  half-life at 5 µM: 1.08 h
human, with NADPH and AST-3021
  % Remaining: 53.65%
human, 2 mM NADPH + 3 μM AST-3021 (inhibition reaction group), 5 μM
  Metabolic parameter k: 0.0107
human, 2 mM NADPH + 3 μM AST-3021 (inhibition reaction group), 5 μM, 0 min
  average % Remaining: 100.00%
human, 2 mM NADPH + 3 μM AST-3021 (inhibition reaction group), 5 μM, 5 min
  average % Remaining: 83.74%
human, 2 mM NADPH + 3 μM AST-3021 (inhibition reaction group), 5 μM, 15 min
  average % Remaining: 78.58%
human, 2 mM NADPH + 3 μM AST-3021 (inhibition reaction group), 5 μM, 30 min
  average % Remaining: 67.01%
human, 2 mM NADPH + 3 μM AST-3021 (inhibition reaction group), 5 μM, 45 min
  average % Remaining: 66.39%
human, 2 mM NADPH + 3 μM AST-3021 (inhibition reaction group), 5 μM, 60 min
  average % Remaining: 53.65%
human, 2 mM NADPH, no AST-3021 (normal reaction / positive control group), 5 μM
  Metabolic parameter k: 0.0139
human, 2 mM NADPH, no AST-3021 (normal reaction / positive control group), 5 μM, 0 min
  average % Remaining: 100.00%
human, 2 mM NADPH, no AST-3021 (normal reaction / positive control group), 5 μM, 5 min
  average % Remaining: 88.27%
human, 2 mM NADPH, no AST-3021 (normal reaction / positive control group), 5 μM, 15 min
  average % Remaining: 79.04%
human, 2 mM NADPH, no AST-3021 (normal reaction / positive control group), 5 μM, 30 min
  average % Remaining: 70.02%
human, 2 mM NADPH, no AST-3021 (normal reaction / positive control group), 5 μM, 45 min
  average % Remaining: 52.35%
human, 2 mM NADPH, no AST-3021 (normal reaction / positive control group), 5 μM, 60 min
  average % Remaining: 43.34%
human, negative control group (no NADPH, no AST-3021), 5 μM
  Metabolic parameter k: 0.0157
human, negative control group (no NADPH, no AST-3021), 5 μM, 0 min
  average % Remaining: 100.00%
human, negative control group (no NADPH, no AST-3021), 5 μM, 60 min
  average % Remaining: 38.96%
Machin (cynomolgus), monkey, with AST-3021 (AKR1C3 inhibitor), 3 µM, Metabolic parameter t1/2, monkey, 2 mM NADPH + 3 μM AST-3021 (inhibition reaction group), 5 μM
  half-life at 5 µM: 2.59 h
machins, monkey, half-life, with NADPH and AST-3021
  half-life at 5 µM: 2.59 h
machins, monkey, half-life, with NADPH, no AST-3021
  half-life at 5 µM: 2.53 h
monkey, 60 min, no NADPH, no AST-3021
  average % Remaining: 78.57%
monkey, 60 min, with NADPH, no AST-3021
  average % Remaining: 73.28%
monkey, with NADPH and AST-3021
  % Remaining: 69.52%
monkey, 2 mM NADPH + 3 μM AST-3021 (inhibition reaction group), 5 μM
  Metabolic parameter k: 0.0045
monkey, 2 mM NADPH + 3 μM AST-3021 (inhibition reaction group), 5 μM, 0 min
  average % Remaining: 100.00%
monkey, 2 mM NADPH + 3 μM AST-3021 (inhibition reaction group), 5 μM, 5 min
  average % Remaining: 96.83%
monkey, 2 mM NADPH + 3 μM AST-3021 (inhibition reaction group), 5 μM, 15 min
  average % Remaining: 101.19%
monkey, 2 mM NADPH + 3 μM AST-3021 (inhibition reaction group), 5 μM, 30 min
  average % Remaining: 90.97%
monkey, 2 mM NADPH + 3 μM AST-3021 (inhibition reaction group), 5 μM, 45 min
  average % Remaining: 88.36%
monkey, 2 mM NADPH + 3 μM AST-3021 (inhibition reaction group), 5 μM, 60 min
  average % Remaining: 69.52%
